Results reported in PubChem BioAssay (NCI).
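Briefly, cells in 96-well plates were exposed to five compound concentrations for 48 h, and endpoints were estimated by linear interpolation. TGI is the concentration that stops growth completely.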

What was measured:
Experiment in all cases: growth of human tumour cells (NCI), 48 h
CAKI-1 renal = test system: CAKI-1 renal
U251 CNS = test system: U251 CNS
CCRF-CEM leukemia = test system: CCRF-CEM leukemia
RPMI-8226 leukemia = test system: RPMI-8226 leukemia
A549 NSCLC = test system: A549 NSCLC
SF-539 CNS = test system: SF-539 CNS
DLD-1 colon = test system: DLD-1 colon
HOP-92 NSCLC = test system: HOP-92 NSCLC
EKVX NSCLC = test system: EKVX NSCLC
SF-268 CNS = test system: SF-268 CNS
DMS 114 small cell lung = test system: DMS 114 small cell lung
HOP-18 NSCLC = test system: HOP-18 NSCLC
SNB-78 CNS = test system: SNB-78 CNS
SNB-19 CNS = test system: SNB-19 CNS
SW-620 colon = test system: SW-620 colon
SK-MEL-2 melanoma = test system: SK-MEL-2 melanoma
NCI-H522 lung = test system: NCI-H522 lung
SK-MEL-28 melanoma = test system: SK-MEL-28 melanoma
NCI-H226 lung = test system: NCI-H226 lung
UACC-62 melanoma = test system: UACC-62 melanoma
ACHN renal = test system: ACHN renal
OVCAR-4 ovarian = test system: OVCAR-4 ovarian
M14 melanoma = test system: M14 melanoma
OVCAR-3 ovarian = test system: OVCAR-3 ovarian
OVCAR-5 ovarian = test system: OVCAR-5 ovarian
NCI-H23 lung = test system: NCI-H23 lung
UACC-257 melanoma = test system: UACC-257 melanoma
M19-MEL melanoma = test system: M19-MEL melanoma
HCT-15 colon = test system: HCT-15 colon
HOP-62 NSCLC = test system: HOP-62 NSCLC
KM20L2 colon = test system: KM20L2 colon
HCC-2998 colon = test system: HCC-2998 colon
HCT-116 colon = test system: HCT-116 colon
SK-OV-3 ovarian = test system: SK-OV-3 ovarian
DMS 273 small cell lung = test system: DMS 273 small cell lung
MALME-3M melanoma = test system: MALME-3M melanoma
NCI-H460 lung = test system: NCI-H460 lung
OVCAR-8 ovarian = test system: OVCAR-8 ovarian
A498 renal = test system: A498 renal
LOX IMVI melanoma = test system: LOX IMVI melanoma
RXF-631 renal = test system: RXF-631 renal
LXFL 529 NSCLC = test system: LXFL 529 NSCLC
SNB-75 CNS = test system: SNB-75 CNS
MOLT-4 leukemia = test system: MOLT-4 leukemia
COLO 205 colon = test system: COLO 205 colon
UO-31 renal = test system: UO-31 renal
786-0 renal = test system: 786-0 renal
HT29 colon = test system: HT29 colon
K-562 leukemia = test system: K-562 leukemia
SN12C renal = test system: SN12C renal
XF 498 CNS = test system: XF 498 CNS
TK-10 renal = test system: TK-10 renal
SK-MEL-5 melanoma = test system: SK-MEL-5 melanoma
KM12 colon = test system: KM12 colon
IGROV1 ovarian = test system: IGROV1 ovarian
SR leukemia = test system: SR leukemia
SF-295 CNS = test system: SF-295 CNS
RXF 393 renal = test system: RXF 393 renal
HL-60(TB) leukemia = test system: HL-60(TB) leukemia

Nc1ccc(N)c2c1C(=O)c1ccccc1C2=O
TGI (CAKI-1 renal): > 100 µM | TGI (U251 CNS): > 100 µM | TGI (CCRF-CEM leukemia): > 100 µM | TGI (RPMI-8226 leukemia): > 100 µM | TGI (A549 NSCLC): > 100 µM | TGI (SF-539 CNS): > 100 µM | TGI (DLD-1 colon): > 100 µM | TGI (HOP-92 NSCLC): > 100 µM | TGI (EKVX NSCLC): > 100 µM | TGI (SF-268 CNS): > 100 µM | TGI (DMS 114 small cell lung): > 100 µM | TGI (HOP-18 NSCLC): > 100 µM | TGI (SNB-78 CNS): > 100 µM | TGI (SNB-19 CNS): > 100 µM | TGI (SW-620 colon): > 100 µM | TGI (SK-MEL-2 melanoma): > 100 µM | TGI (NCI-H522 lung): > 100 µM | TGI (SK-MEL-28 melanoma): > 100 µM | TGI (NCI-H226 lung): > 100 µM | TGI (UACC-62 melanoma): > 100 µM | TGI (ACHN renal): > 100 µM | TGI (OVCAR-4 ovarian): > 100 µM | TGI (M14 melanoma): > 100 µM | TGI (OVCAR-3 ovarian): > 100 µM | TGI (OVCAR-5 ovarian): > 100 µM | TGI (NCI-H23 lung): > 100 µM | TGI (UACC-257 melanoma): > 100 µM | TGI (M19-MEL melanoma): > 100 µM | TGI (HCT-15 colon): > 100 µM | TGI (HOP-62 NSCLC): > 100 µM | TGI (KM20L2 colon): > 100 µM | TGI (HCC-2998 colon): 72.9 µM | TGI (HCT-116 colon): > 100 µM | TGI (SK-OV-3 ovarian): > 100 µM | TGI (DMS 273 small cell lung): > 100 µM | TGI (MALME-3M melanoma): > 100 µM | TGI (NCI-H460 lung): > 100 µM | TGI (OVCAR-8 ovarian): > 100 µM | TGI (A498 renal): > 100 µM | TGI (LOX IMVI melanoma): > 100 µM | TGI (RXF-631 renal): > 100 µM | TGI (LXFL 529 NSCLC): > 100 µM | TGI (SNB-75 CNS): > 100 µM | TGI (MOLT-4 leukemia): > 100 µM | TGI (COLO 205 colon): > 100 µM | TGI (UO-31 renal): > 100 µM | TGI (786-0 renal): > 100 µM | TGI (HT29 colon): > 100 µM | TGI (K-562 leukemia): > 100 µM | TGI (SN12C renal): > 100 µM | TGI (XF 498 CNS): > 100 µM | TGI (TK-10 renal): 94 µM | TGI (SK-MEL-5 melanoma): > 100 µM | TGI (KM12 colon): > 100 µM | TGI (IGROV1 ovarian): > 100 µM

CCc1ccccc1N1C(=O)C(=O)C(c2nc3ccccc3s2)C(=O)C1=O
TGI (CAKI-1 renal): > 100 µM | TGI (U251 CNS): > 100 µM | TGI (CCRF-CEM leukemia): > 100 µM | TGI (RPMI-8226 leukemia): > 100 µM | TGI (A549 NSCLC): > 100 µM | TGI (SF-539 CNS): > 100 µM | TGI (DLD-1 colon): > 100 µM | TGI (HOP-92 NSCLC): > 100 µM | TGI (EKVX NSCLC): > 100 µM | TGI (SR leukemia): > 100 µM | TGI (SF-268 CNS): > 100 µM | TGI (DMS 114 small cell lung): > 100 µM | TGI (HOP-18 NSCLC): > 100 µM | TGI (SNB-78 CNS): > 100 µM | TGI (SNB-19 CNS): > 100 µM | TGI (SW-620 colon): > 100 µM | TGI (SK-MEL-2 melanoma): > 100 µM | TGI (NCI-H522 lung): > 100 µM | TGI (SK-MEL-28 melanoma): > 100 µM | TGI (NCI-H226 lung): > 100 µM | TGI (UACC-62 melanoma): > 100 µM | TGI (ACHN renal): > 100 µM | TGI (OVCAR-4 ovarian): > 100 µM | TGI (M14 melanoma): > 100 µM | TGI (OVCAR-3 ovarian): > 100 µM | TGI (OVCAR-5 ovarian): > 100 µM | TGI (NCI-H23 lung): > 100 µM | TGI (UACC-257 melanoma): > 100 µM | TGI (M19-MEL melanoma): > 100 µM | TGI (HCT-15 colon): > 100 µM | TGI (HOP-62 NSCLC): > 100 µM | TGI (KM20L2 colon): > 100 µM | TGI (HCC-2998 colon): > 100 µM | TGI (HCT-116 colon): > 100 µM | TGI (SK-OV-3 ovarian): > 100 µM | TGI (MALME-3M melanoma): > 100 µM | TGI (NCI-H460 lung): > 100 µM | TGI (OVCAR-8 ovarian): > 100 µM | TGI (LOX IMVI melanoma): > 100 µM | TGI (RXF-631 renal): > 100 µM | TGI (LXFL 529 NSCLC): > 100 µM | TGI (SF-295 CNS): > 100 µM | TGI (MOLT-4 leukemia): > 100 µM | TGI (UO-31 renal): > 100 µM | TGI (786-0 renal): > 100 µM | TGI (HT29 colon): > 100 µM | TGI (RXF 393 renal): > 100 µM | TGI (K-562 leukemia): > 100 µM | TGI (HL-60(TB) leukemia): > 100 µM | TGI (SN12C renal): > 100 µM | TGI (XF 498 CNS): > 100 µM | TGI (TK-10 renal): > 100 µM | TGI (SK-MEL-5 melanoma): > 100 µM | TGI (KM12 colon): > 100 µM | TGI (IGROV1 ovarian): > 100 µM
